Results: patent publication US20200011856A1, “Method for Determining the Effectiveness of Treatment for the Prevention of Heartworm Disease” (priority 2017, published 2020)
Values joined by “and” are separate entries in the source; they are usually repeats but may differ in a detail not shown here. Equal entries are not always repeated.

How the values were obtained:
[1] = system: Dirofilaria immitis (Merial worms, UC strain); assay: D. immitis L3 infection of NSG mice with Merial worms / UC strain, treatment, recovery and count of worms; type: in vivo; conditions: for % Rec, Mean / Mean % Rec: group mean; for Mean Survival / Survival, Mean: in vivo
Dirofilaria immitis = assay: D. immitis L3 infection of NSG mice (FR3 Missouri strain or strain not stated), treatment, recovery and count of worms at necropsy; type: in vivo; conditions: for % Rec, Mean / Mean % Rec: group mean
[2] = NSG mice, 50 Di L3 Merial worms, 1 mg/kg on Days 1, 15, and 30, recovery Days 41 to 43
[3] = NSG mice, 50 Di L3 UC strain, High Dose 5 mg/kg on Days 1, 15, and 30, recovery Days 41 and 42
[4] = NSG mice, 50 Di L3 UC strain, Normal Dose 1 mg/kg on Days 1, 15, and 30, recovery Days 41 and 42
[5] = Table 9, NSG mice, 50 Di L3, 1 mg/kg on Days 1, 15, and 30, recovery Days 41 to 43
[6] = Table 11, NSG mice, 50 Di L3, 1 mg/kg on Days 1, 15, and 30, recovery Days 41 to 42
[7] = Table 11, NSG mice, 50 Di L3, 5 mg/kg on Days 1, 15, and 30, recovery Days 41 to 42

## C[C@H]1OC(=O)[C@H](CC(C)(C)C)N(C)C(=O)[C@@H](Cc2ccc(C3CCOCC3)cc2)OC(=O)[C@H](CC(C)(C)F)N(C)C(=O)[C@@H](C)OC(=O)[C@H](CC(C)(C)C)N(C)C(=O)[C@@H](Cc2ccc(C3CCOCC3)cc2)OC(=O)[C@H](CC(C)(C)F)N(C)C1=O [compound 4838]
[1]; 4838 1 mg/kg Days 1, 15, 30, 50 Di L3 (UC Strain) per NSG mouse, recovery Days 41 to 43
  % Rec, Mean: 9%
[1]; 4838 1 mg/kg Days 1, 15, 30, 50 Di L3 (UC Strain) per NSG mouse, recovery Days 41 to 43, individual mice, 1 mg/kg
  % Rec: 10% and 14% and 8% and 20% and 6% (2×) and 2%
[1]; 4838 1 mg/kg Days 1, 15, 30, 50 Di L3 (UC Strain) per NSG mouse, vs Control
  % Red: 75%
[1]; 4838 5 mg/kg Days 1, 15, 30, 50 Di L3 (UC Strain) per NSG mouse, recovery Days 41 to 43
  % Rec, Mean: 2%
[1]; 4838 5 mg/kg Days 1, 15, 30, 50 Di L3 (UC Strain) per NSG mouse, recovery Days 41 to 43, individual mice, 5 mg/kg
  % Rec: 2% (4×) and 0% and 4% (2×)
[1]; 4838 5 mg/kg Days 1, 15, 30, 50 Di L3 (UC Strain) per NSG mouse, vs Control
  % Red: 94%
[1]; [2]
  % Red: 38%
  Mean % Rec: 21%
[1]; [3]
  % Red: 92%
  Mean % Rec: 3%
[1]; [4]
  % Red: 58%
  Mean % Rec: 15%
[1]; 1 mg/kg
  Mean Survival: 10 and 8
  Survival, Mean: 5
[1]; 5 mg/kg
  Mean Survival: 1
  Survival, Mean: 1
[1]; individual mouse, NSG mice, 50 Di L3 Merial worms, 1 mg/kg on Days 1, 15, and 30, recovery Days 41 to 43, 1 mg/kg
  % Rec: 20% (3×) and 12% and 24% and 16% (2×) and 36%
[1]; individual mouse, NSG mice, 50 Di L3 UC strain, High Dose 5 mg/kg on Days 1, 15, and 30, recovery Days 41 and 42, 5 mg/kg
  % Rec: 4% (4×) and 0% and 2% (2×)
[1]; individual mouse, NSG mice, 50 Di L3 UC strain, Normal Dose 1 mg/kg on Days 1, 15, and 30, recovery Days 41 and 42, 1 mg/kg
  % Rec: 14% (3×) and 16% (3×) and 18%
Dirofilaria immitis; 4838 1 mg/kg days 1, 15, 30, 50 Di L3 (FR3 worms) per NSG mouse, Table 17, vs Control
  % Red: % Red: 50%
Dirofilaria immitis; 4838 1 mg/kg days 1, 15, 30, 50 Di L3 (FR3 worms) per NSG mouse, recovery Days 41 and 42, Table 17
  % Rec, Mean: 14%
Dirofilaria immitis; 4838 1 mg/kg days 1, 15, 30, 50 Di L3 (FR3 worms) per NSG mouse, recovery Days 41 and 42, Table 17, individual mice, 1 mg/kg
  % Rec: 10% (2×) and 20% and 16% (2×) and 12% (2×)
Dirofilaria immitis; 4838 2.5 mg/kg days 1, 15, 30, 50 Di L3 (FR3 worms) per NSG mouse, Table 17, vs Control
  % Red: % Red: 76%
Dirofilaria immitis; 4838 2.5 mg/kg days 1, 15, 30, 50 Di L3 (FR3 worms) per NSG mouse, recovery Days 41 and 42, Table 17
  % Rec, Mean: 6%
Dirofilaria immitis; 4838 2.5 mg/kg days 1, 15, 30, 50 Di L3 (FR3 worms) per NSG mouse, recovery Days 41 and 42, Table 17, individual mice, 2.5 mg/kg
  % Rec: 2% and 12% and 4% (3×) and 10% and 8%
Dirofilaria immitis; 4838 5 mg/kg days 1, 15, 30, 50 Di L3 (FR3 worms) per NSG mouse, Table 17, vs Control
  % Red: % Red: 93%
Dirofilaria immitis; 4838 5 mg/kg days 1, 15, 30, 50 Di L3 (FR3 worms) per NSG mouse, recovery Days 41 and 42, Table 17
  % Rec, Mean: 2%
Dirofilaria immitis; 4838 5 mg/kg days 1, 15, 30, 50 Di L3 (FR3 worms) per NSG mouse, recovery Days 41 and 42, Table 17, individual mice, 5 mg/kg
  % Rec: 0% (4×) and 4% (3×)
Dirofilaria immitis; 4838 10 mg/kg Days 1, 15, 30, 50 Di L3 per NSG mouse, Table 14, vs Control
  % Red: 100%
Dirofilaria immitis; 4838 10 mg/kg Days 1, 15, 30, 50 Di L3 per NSG mouse, recovery Days 41 to 42, Table 14
  % Rec, Mean: 0%
Dirofilaria immitis; 4838 10 mg/kg Days 1, 15, 30, 50 Di L3 per NSG mouse, recovery Days 41 to 42, Table 14, individual mice
  % Rec: 0%
Dirofilaria immitis; 4838 10 mg/kg days 1, 15, 30, 50 Di L3 (FR3 worms) per NSG mouse, Table 17, vs Control
  % Red: % Red: 99%
Dirofilaria immitis; 4838 10 mg/kg days 1, 15, 30, 50 Di L3 (FR3 worms) per NSG mouse, recovery Days 41 and 42, Table 17
  % Rec, Mean: 0.29%
Dirofilaria immitis; 4838 10 mg/kg days 1, 15, 30, 50 Di L3 (FR3 worms) per NSG mouse, recovery Days 41 and 42, Table 17, individual mice, 10 mg/kg
  % Rec: 0% (6×) and 2%
Dirofilaria immitis; 4838 .5 mg/kg days 1, 15, 30, 50 Di L3 (FR3 worms) per NSG mouse, Table 17, vs Control
  % Red: % Red: 36%
Dirofilaria immitis; 4838 .5 mg/kg days 1, 15, 30, 50 Di L3 (FR3 worms) per NSG mouse, recovery Days 41 and 42, Table 17
  % Rec, Mean: 18%
Dirofilaria immitis; 4838 .5 mg/kg days 1, 15, 30, 50 Di L3 (FR3 worms) per NSG mouse, recovery Days 41 and 42, Table 17, individual mice
  % Rec: 22% and 8% (2×) and 34% and 16% and 12% and 28%
Dirofilaria immitis; [5]
  % Red: 24%
  Mean % Rec: 25%
Dirofilaria immitis; Table 9, individual mouse, NSG mice, 50 Di L3, 1 mg/kg on Days 1, 15, and 30, recovery Days 41 to 43
  % Rec: 26% and 30% (2×) and 12% and 14% and 32%
Dirofilaria immitis; [6]
  % Red: 21%
  Mean % Rec: 19%
Dirofilaria immitis; [7]
  % Red: 92%
  Mean % Rec: 2%
Dirofilaria immitis; Table 11, individual mouse, NSG mice, 50 Di L3, 1 mg/kg on Days 1, 15, and 30, recovery Days 41 to 42
  % Rec: 20% and 12% and 8% and 30% and 28% and 18%
Dirofilaria immitis; Table 11, individual mouse, NSG mice, 50 Di L3, 5 mg/kg on Days 1, 15, and 30, recovery Days 41 to 42
  % Rec: 4% (2×) and 2% (3×) and 0%
Dirofilaria immitis; in vivo
  Survival, Mean: 9
Dirofilaria immitis; in vivo, 1 mg/kg
  Survival: 5 and 10 and 8 and 6
  Survival, Mean: 7
Dirofilaria immitis; in vivo, 2.5 mg/kg
  Survival, Mean: 3
Dirofilaria immitis; in vivo, 5 mg/kg
  Survival, Mean: 1
Dirofilaria immitis; in vivo, 10 mg/kg
  Survival, Mean: 0
